Experimental data reported in US7365098B2, “N'-cyano-N-methyl-imidamide derivatives” (Bayer CropScience AG, priority 2002, dated 2008).

How the values were obtained:
[1] = logP determination by HPLC on reversed-phase column (EEC-Directive 79/831 Annex V.A8); type: physicochemical; conditions: reversed-phase C 18, 43° C., acidic range (0.1% aqueous phosphoric acid/acetonitrile gradient); for chromatographic logP: reversed-phase HPLC column (C 18)
Protocol: The logP values given in table 1 were determined in accordance with EEC-Directive 79/831 Annex V.A8 by HPLC (High Performance Liquid Chromatography) on a reversed-phase column (C 18). Temperature: 43° C. Mobile phases for the determination in the acidic range: 0.1% aqueous phosphoric acid, acetonitrile; linear gradient from 10% acetonitrile to 90% acetonitrile. Calibration was carried out using unbranched alkan-2-ones (having 3 to 16 carbon atoms) whose logP values are known (determination of the lopP values by the retention times using linear interpolation between two successive alkanones).

[2] = system: Meloidogyne incognita; experiment: Meloidogyne test (gall formation on lettuce roots); type: in vivo; conditions: for nematizidal activity (formation of galls): Meloidogyne incognita egg/larvae, lettuce in sand, result in words
Protocol: • Solvent: 7 parts by weight of dimethylformamide • Emulsifier: 2 parts by weight of alkylaryl polyglycol ether To produce a suitable preparation of active compound, 1 part by weight of active compound is mixed with the stated amount of solvent and emulsifier, and the concentrate is diluted with water to the desired concentration. Containers are filled with sand, solution of active compound, Meloidogyne incognita egg/larvae suspension and lettuce seeds. The lettuce seeds germinate and the plants develop. On the roots, galls are formed. After the desired period of time, the nematizidal activity is the determined in percent by the formation of galls. 100% means that no galls were found; 0% means that the number of galls on the treated plants corresponds to that of the untreated control. […] The efficacy of the compounds is stated as kill rate in %.

[3] = system: Spodoptera frugiperda; experiment: Spodoptera frugiperda test (dipped cabbage leaves); type: in vivo; conditions: Spodoptera frugiperda caterpillars on cabbage leaves; result in words
Protocol: [table] To produce a suitable preparation of active compound, 1 part by weight of active compound is mixed with the stated amount of solvent and emulsifier, and the concentrate is diluted with water to the desired concentration. Cabbage leaves (Brassica oleracea) are treated by being dipped into the preparation of active compound of the desired concentration and are populated with caterpillars of the Heerwurms (Spodoptera frugiperda) while the leaves are still moist. After the desired period of time, the kill in % is determined. 100% means that all caterpillars have been killed. 0% means that none of the caterpillars have been killed.

[4] = system: Phaedon cochleariae; experiment: Phaedon larvae test (dipped cabbage leaves); type: in vivo; conditions: Phaedon cochleariae larvae on cabbage leaves; result in words
Protocol: • Solvent: 7 parts by weight of dimethylformamide • Emulsifier: 2 parts by weight of alkylaryl polyglycol ether To produce a suitable preparation of active compound, 1 part by weight of active compound is mixed with the stated amounts of solvent and emulsifier, and the concentrate is diluted with emulsifier-containing water to the desired concentration. Cabbage leaves (Brassica oleracea) are treated by being dipped into the preparation of active compound of the desired concentration and are populated with larvae of the mustard beetle (Phaedon cochleariae) while the leaves are still moist. After the desired period of time, the kill in % is determined. 100% means that all beetle larvae have been killed. 0% means that none of the beetle larvae have been killed.

SMILES: CC/C(=N\C#N)NC(C)c1ccc(Cl)cc1Cl (stereo not drawn) [Example 1, N′-Cyano-N-[1-(2,4-dichlorophenyl)ethyl]propaneimidamide]
- chromatographic logP [1]: 2.56

SMILES: CC/C(=N\C#N)N(C)C(C)c1ccc(Cl)cc1Cl (stereo not drawn) [Example 2, N′-Cyano-N-[1-(2,4-dichlorophenyl)ethyl]-N-methylpropaneimidamide]
- melting point: 148 °C
- chromatographic logP [1]: 2.8

SMILES: C/C(=N\C#N)N(C)C(C)c1ccc(Cl)cc1F (stereo not drawn) [Example 3]
- nematizidal activity (formation of galls) [2]: highly effective

SMILES: CC/C(=N\C#N)N(C)C(C)c1ccc(Cl)cc1F (stereo not drawn) [Example 4]
- nematizidal activity (formation of galls) [2]: highly effective

SMILES: CC/C(=N\C#N)N(C)C(C)c1cc(F)c(Cl)cc1F (stereo not drawn) [Example 5]
- kill of caterpillars [3]: highly effective
- nematizidal activity (formation of galls) [2]: highly effective

SMILES: C/C(=N\C#N)N(C)C(C)c1cc(F)c(Cl)cc1F (stereo not drawn) [Example 6]
- nematizidal activity (formation of galls) [2]: highly effective

SMILES: C/C(=N\C#N)N(C)C(C)c1ccc(Cl)c(F)c1 (stereo not drawn) [Example 7]
- chromatographic logP [1]: 2.4
- nematizidal activity (formation of galls) [2]: highly effective

SMILES: CC/C(=N\C#N)N(C)C(C)c1ccc(Cl)c(F)c1 (stereo not drawn) [Example 8]
- chromatographic logP [1]: 2.61
- nematizidal activity (formation of galls) [2]: highly effective

SMILES: CC/C(=N\C#N)N(C)C(C)c1cc(F)c(Cl)cc1Cl (stereo not drawn) [Example 9]
- kill of caterpillars [3]: highly effective
- nematizidal activity (formation of galls) [2]: highly effective

SMILES: CC/C(=N\C#N)N(C)[C@@H](C)c1ccc(Cl)cc1F [Example 10]
- chromatographic logP [1]: 2.55
- nematizidal activity (formation of galls) [2]: highly effective

SMILES: CC/C(=N\C#N)N(C)[C@H](C)c1ccc(Cl)cc1F [Example 11]
- chromatographic logP [1]: 2.55
- nematizidal activity (formation of galls) [2]: highly effective

SMILES: CC/C(=N\C#N)N(C)[C@@H](C)c1cc(F)c(Cl)cc1F [Example 12]
- chromatographic logP [1]: 2.59
- nematizidal activity (formation of galls) [2]: highly effective

SMILES: CC/C(=N\C#N)N(C)[C@H](C)c1cc(F)c(Cl)cc1F [Example 13]
- chromatographic logP [1]: 2.59
- nematizidal activity (formation of galls) [2]: highly effective

SMILES: C/C(=N\C#N)N(C)C(C)c1ccc(Cl)c(Cl)c1 (stereo not drawn) [Example 14]
- chromatographic logP [1]: 2.68
- nematizidal activity (formation of galls) [2]: highly effective

SMILES: CC/C(=N\C#N)N(C)C(C)c1ccc(Cl)c(Cl)c1 (stereo not drawn) [Example 15]
- chromatographic logP [1]: 2.9
- nematizidal activity (formation of galls) [2]: highly effective

SMILES: CC/C(=N\C#N)N(C)C(C)c1cc(F)c(F)cc1F (stereo not drawn) [Example 16]
- chromatographic logP [1]: 2.31

SMILES: C/C(=N\C#N)N(C)C(C)c1ccc(Cl)cc1Cl (stereo not drawn) [Example 17]
- chromatographic logP [1]: 2.58
- nematizidal activity (formation of galls) [2]: highly effective

SMILES: CC/C(=N\C#N)N(C)C(C)c1ccc(Cl)c(Cl)c1Cl (stereo not drawn) [Example 18]
- nematizidal activity (formation of galls) [2]: highly effective

SMILES: C/C(=N\C#N)N(C)C(C)c1cc(Cl)c(Cl)cc1Cl (stereo not drawn) [Example 19]
- kill of caterpillars [3]: highly effective
- kill of beetle larvae [4]: highly effective
- chromatographic logP [1]: 2.9
- nematizidal activity (formation of galls) [2]: highly effective

SMILES: CC/C(=N\C#N)N(C)C(C)c1cc(Cl)c(Cl)cc1Cl (stereo not drawn) [Example 20]
- chromatographic logP [1]: 3.18
- nematizidal activity (formation of galls) [2]: highly effective

SMILES: CC/C(=N\C#N)N(C)C(C)c1ccc(Cl)c(Br)c1 (stereo not drawn) [Example 21]
- chromatographic logP [1]: 2.94

SMILES: CC/C(=N\C#N)N(C)C(C)c1c(F)cccc1Cl (stereo not drawn) [Example 22]
- chromatographic logP [1]: 2.19
- nematizidal activity (formation of galls) [2]: highly effective

SMILES: CC/C(=N\C#N)N(C)C(C)c1c(F)cccc1Cl (stereo not drawn) [Example 23]
- logP [1]: logP: 2.40
- nematizidal activity (formation of galls) [2]: highly effective

SMILES: C/C(=N\C#N)N(C)C(C)c1cc(Cl)ccc1Cl (stereo not drawn) [Example 24]
- chromatographic logP [1]: 2.46
- nematizidal activity (formation of galls) [2]: highly effective

SMILES: CC/C(=N\C#N)N(C)C(C)c1ccc(Br)c(Cl)c1 (stereo not drawn) [Example 25]
- chromatographic logP [1]: 2.94
- nematizidal activity (formation of galls) [2]: highly effective

SMILES: C/C(=N\C#N)N(C)C(C)c1ccc(F)c(F)c1 (stereo not drawn) [Example 26]
- chromatographic logP [1]: 2.09
- nematizidal activity (formation of galls) [2]: highly effective

SMILES: CC/C(=N\C#N)N(C)C(C)c1ccc(F)c(F)c1 (stereo not drawn) [Example 27]
- chromatographic logP [1]: 2.32
- nematizidal activity (formation of galls) [2]: highly effective

SMILES: C/C(=N\C#N)N(C)C(C)c1cccc(Cl)c1Cl (stereo not drawn) [Example 28]
- chromatographic logP [1]: 2.37
- nematizidal activity (formation of galls) [2]: highly effective

SMILES: CC/C(=N\C#N)N(C)C(C)c1cccc(Cl)c1Cl (stereo not drawn) [Example 29]
- chromatographic logP [1]: 2.59
- nematizidal activity (formation of galls) [2]: highly effective

SMILES: CC/C(=N\C#N)N(C)C(C)c1cc(F)c(Br)cc1F (stereo not drawn) [Example 30]
- chromatographic logP [1]: 2.66

SMILES: CC/C(=N\C#N)N(C)C(C)c1ccc(Cl)cc1Cl (stereo not drawn) [drawing 44]
- efficacy stated as kill rate in % ([2]; 20 ppm active compound): 20 ppm: 100%

SMILES: CC/C(=N\C#N)NC(C)c1ccc(Cl)cc1Cl (stereo not drawn) [drawing 45, reference compound]
- efficacy stated as kill rate in % ([2]; 20 ppm active compound): 20 ppm: 0%

SMILES: CC/C(=N\C#N)N(C)C(C)c1ccc(Cl)c(F)c1 (stereo not drawn) [drawing 46]
- efficacy stated as kill rate in % ([2]; 4 ppm active compound): 4 ppm: 100%

SMILES: C/C(=N\C#N)N(C)C(C)c1ccc(Cl)cc1Cl (stereo not drawn) [drawing 48]
- efficacy stated as kill rate in % ([2]; 4 ppm active compound): 4 ppm: 100%

SMILES: CC/C(=N\C#N)NC(C)c1ccc(Cl)c(F)c1 (stereo not drawn) [reference compound]
- efficacy stated as kill rate in % ([2]; 4 ppm active compound): 4 ppm: 0%

SMILES: C/C(=N\C#N)NC(C)c1ccc(Cl)cc1Cl (stereo not drawn) [reference compound]
- efficacy stated as kill rate in % ([2]; 5 ppm active compound): 5 ppm: 0%
